Source: ChEMBL document CHEMBL1130674, “N-arylrolipram derivatives as potent and selective PDE4 inhibitors” (1998)

Experiments:
[1] = target: Phosphodiesterase 3 (Homo sapiens) (UniProt Q14432+Q13370); assay: Inhibition of phosphodiesterase (PDE) 3; assay type: protein assay
[2] = target: 3',5'-cyclic-AMP phosphodiesterase 4D (Homo sapiens) (UniProt Q08499); assay: Inhibition of phosphodiesterase (PDE) 4D
[3] = target: T1, 3',5'-cyclic-AMP phosphodiesterase 4B (Rattus norvegicus) (UniProt P14646); assay: Inhibition of phosphodiesterase (PDE) 4B
T1 sequence (whole entry): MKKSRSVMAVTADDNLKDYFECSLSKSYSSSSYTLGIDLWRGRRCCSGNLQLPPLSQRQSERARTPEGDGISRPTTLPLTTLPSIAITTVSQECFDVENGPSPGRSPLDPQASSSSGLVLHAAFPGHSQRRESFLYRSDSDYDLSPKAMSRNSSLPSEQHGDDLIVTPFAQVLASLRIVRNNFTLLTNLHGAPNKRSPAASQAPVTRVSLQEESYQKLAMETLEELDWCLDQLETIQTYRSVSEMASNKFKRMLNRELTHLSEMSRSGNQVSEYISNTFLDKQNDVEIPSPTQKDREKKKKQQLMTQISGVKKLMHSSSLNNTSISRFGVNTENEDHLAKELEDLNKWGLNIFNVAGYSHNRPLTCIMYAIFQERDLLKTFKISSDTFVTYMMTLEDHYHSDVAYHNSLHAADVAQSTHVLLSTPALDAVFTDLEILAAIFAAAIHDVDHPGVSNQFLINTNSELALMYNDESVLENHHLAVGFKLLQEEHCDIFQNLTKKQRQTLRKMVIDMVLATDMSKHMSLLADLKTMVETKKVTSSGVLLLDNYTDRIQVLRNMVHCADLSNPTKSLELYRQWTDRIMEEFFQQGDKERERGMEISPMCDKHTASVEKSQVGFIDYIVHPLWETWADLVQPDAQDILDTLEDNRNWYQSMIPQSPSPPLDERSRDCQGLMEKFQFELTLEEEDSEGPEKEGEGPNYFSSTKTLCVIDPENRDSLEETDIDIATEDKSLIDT

[4] = target: 3',5'-cyclic-AMP phosphodiesterase 4A (Homo sapiens) (UniProt P27815)
Description: Inhibition of phosphodiesterase (PDE) 4A

[5] = Inhibition of rolipram binding
Rattus norvegicus [6] = assay: Eosinophil accumulation in sensitized brown norway rats at 1 mg/kg dose (No of rats = 5); assay type: functional
Homo sapiens = organism: Homo sapiens; assay: Inhibition of fMLP induced oxidative burst in human eosinophils.; assay type: functional
PBMC [7] = assay: Inhibition of anti-CD3 induced IL-4 release by human peripheral blood mononuclear cells.; assay type: functional
PBMC [8] = assay: Inhibition of anti-CD3 induced T-cell proliferation in human peripheral blood mononuclear cells.; assay type: functional
PBMC [9] = assay: Inhibition of LPS induced TNF-alpha release by human peripheral blood mononuclear cells.; assay type: functional
PBMC [10] = assay: Inhibition of anti-CD3 induced IFN-gamma-release in human peripheral blood mononuclear cells.; assay type: functional
Rattus norvegicus [11] = assay: Eosinophil accumulation in sensitized brown norway rats at 3.2 mg/kg dose (No of rats = 5); assay type: functional

3',5'-cyclic-AMP phosphodiesterase 4D (Homo sapiens), sequence (Q08499 whole entry): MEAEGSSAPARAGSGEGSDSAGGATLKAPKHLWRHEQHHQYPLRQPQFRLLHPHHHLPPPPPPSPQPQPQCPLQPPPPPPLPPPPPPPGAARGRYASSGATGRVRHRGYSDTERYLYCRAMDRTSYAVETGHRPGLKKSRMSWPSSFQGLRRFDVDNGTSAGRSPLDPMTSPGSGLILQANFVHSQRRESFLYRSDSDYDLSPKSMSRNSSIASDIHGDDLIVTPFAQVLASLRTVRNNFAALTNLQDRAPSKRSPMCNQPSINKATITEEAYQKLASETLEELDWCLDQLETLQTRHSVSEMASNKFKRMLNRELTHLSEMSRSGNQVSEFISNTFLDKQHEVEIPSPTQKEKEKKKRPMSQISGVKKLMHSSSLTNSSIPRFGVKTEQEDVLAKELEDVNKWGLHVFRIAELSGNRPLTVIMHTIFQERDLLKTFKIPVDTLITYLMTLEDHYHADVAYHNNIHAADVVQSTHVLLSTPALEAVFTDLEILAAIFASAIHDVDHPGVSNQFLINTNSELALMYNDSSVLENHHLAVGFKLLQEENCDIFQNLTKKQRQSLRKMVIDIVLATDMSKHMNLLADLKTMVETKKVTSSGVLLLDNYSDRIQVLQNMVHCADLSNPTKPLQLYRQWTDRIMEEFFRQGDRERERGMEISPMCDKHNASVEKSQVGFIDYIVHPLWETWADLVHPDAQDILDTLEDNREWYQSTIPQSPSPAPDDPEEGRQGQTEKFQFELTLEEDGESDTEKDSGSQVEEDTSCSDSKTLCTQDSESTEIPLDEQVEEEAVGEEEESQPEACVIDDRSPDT
3',5'-cyclic-AMP phosphodiesterase 4A (Homo sapiens), sequence (P27815 whole entry): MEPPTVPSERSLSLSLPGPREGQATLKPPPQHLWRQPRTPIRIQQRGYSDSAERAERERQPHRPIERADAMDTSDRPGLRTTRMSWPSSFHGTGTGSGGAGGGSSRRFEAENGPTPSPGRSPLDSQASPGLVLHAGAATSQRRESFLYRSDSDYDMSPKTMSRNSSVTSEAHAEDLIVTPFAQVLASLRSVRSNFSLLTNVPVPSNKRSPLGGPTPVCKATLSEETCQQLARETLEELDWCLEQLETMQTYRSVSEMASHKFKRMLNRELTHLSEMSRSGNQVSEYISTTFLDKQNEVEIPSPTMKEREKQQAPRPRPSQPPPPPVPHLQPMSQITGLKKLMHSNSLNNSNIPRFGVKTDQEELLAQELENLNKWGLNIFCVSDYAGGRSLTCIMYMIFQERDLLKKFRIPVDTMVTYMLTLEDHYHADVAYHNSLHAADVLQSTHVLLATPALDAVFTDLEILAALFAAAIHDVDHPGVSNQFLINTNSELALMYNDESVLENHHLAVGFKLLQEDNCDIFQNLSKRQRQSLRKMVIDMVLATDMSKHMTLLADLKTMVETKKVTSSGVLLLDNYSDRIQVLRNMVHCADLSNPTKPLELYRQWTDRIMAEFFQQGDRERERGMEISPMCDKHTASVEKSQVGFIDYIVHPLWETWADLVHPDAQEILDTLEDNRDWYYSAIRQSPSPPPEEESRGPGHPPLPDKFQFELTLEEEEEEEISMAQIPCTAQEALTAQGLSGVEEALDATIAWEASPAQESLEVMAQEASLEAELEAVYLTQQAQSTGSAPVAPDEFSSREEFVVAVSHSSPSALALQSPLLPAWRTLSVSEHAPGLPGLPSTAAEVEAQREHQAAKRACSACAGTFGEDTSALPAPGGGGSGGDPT

SMILES	pIC50 [1]	pIC50 [2]	pIC50 [3]	pIC50 [4]	pIC50 [5]	Activation (Rattus norvegicus [6])	pIC50 (Homo sapiens)	pIC50 (PBMC [7])	pIC50 (PBMC [8])	pIC50 (PBMC [9])	pIC50 (PBMC [10])	Activation (Rattus norvegicus [11])
COc1cccc(COc2cccc(N3CC(c4ccc(OC)c(OC5CCCC5)c4)CC3=O)c2)c1 (stereo unspecified)	< 4	8.1	8.6	8.2	8.1	–	–	–	–	–	–	–
COc1cccc(COc2cc(C(=O)NN(C)C)cc(N3CC(c4ccc(OC)c(OC5CCCC5)c4)CC3=O)c2)c1 (stereo unspecified)	< 4	8.8	8.3	8.6	8.3	10 mU ml-1	7.3	7.6	7.3	7.7	7.8	–
COc1ccc(C2CNC(=O)C2)cc1OC1CCCC1 (stereo unspecified) [ROLIPRAM]	–	–	–	–	–	–	6.1	6.3	–	7.1	5.6	–
COc1cccc(COc2cc(C(=O)O)cc(N3CC(c4ccc(OC)c(OC5CCCC5)c4)CC3=O)c2)c1 (stereo unspecified)	< 4	7.9	7.7	7.9	7.5	–	6.6	6.6	7.2	7.4	7.5	5 mU ml-1
